Data from PubChem BioAssay (NCI).
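GI50 is the concentration that inhibits growth by half. TGI: concentration producing complete growth inhibition.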

What was measured:
Assay in all cases: NCI-60 cell line screen, 384-well format
786-0 renal = tested on: 786-0 renal
A498 renal = tested on: A498 renal
A549 NSCLC = tested on: A549 NSCLC
BT-549 breast = tested on: BT-549 breast
CAKI-1 renal = tested on: CAKI-1 renal
CCRF-CEM leukemia = tested on: CCRF-CEM leukemia
COLO 205 colon = tested on: COLO 205 colon
DU-145 prostate = tested on: DU-145 prostate
EKVX NSCLC = tested on: EKVX NSCLC
HCC-2998 colon = tested on: HCC-2998 colon
HCT-116 colon = tested on: HCT-116 colon
HL-60(TB) leukemia = tested on: HL-60(TB) leukemia
HOP-92 NSCLC = tested on: HOP-92 NSCLC
HS 578T breast = tested on: HS 578T breast
HT29 colon = tested on: HT29 colon
IGROV1 ovarian = tested on: IGROV1 ovarian
KM12 colon = tested on: KM12 colon
M14 melanoma = tested on: M14 melanoma
MALME-3M melanoma = tested on: MALME-3M melanoma
MCF7 breast = tested on: MCF7 breast
MDA-MB-435 melanoma = tested on: MDA-MB-435 melanoma
MOLT-4 leukemia = tested on: MOLT-4 leukemia
NCI-H226 lung = tested on: NCI-H226 lung
NCI-H23 lung = tested on: NCI-H23 lung
NCI-H460 NSCLC = tested on: NCI-H460 NSCLC
NCI-H522 lung = tested on: NCI-H522 lung
NCI/ADR-RES ovarian = tested on: NCI/ADR-RES ovarian
OVCAR-3 ovarian = tested on: OVCAR-3 ovarian
OVCAR-4 ovarian = tested on: OVCAR-4 ovarian
OVCAR-5 ovarian = tested on: OVCAR-5 ovarian
RPMI-8226 leukemia = tested on: RPMI-8226 leukemia
SF-268 CNS = tested on: SF-268 CNS
SF-295 CNS = tested on: SF-295 CNS
SF-539 CNS = tested on: SF-539 CNS
SK-MEL-2 melanoma = tested on: SK-MEL-2 melanoma
SK-MEL-28 melanoma = tested on: SK-MEL-28 melanoma
SK-OV-3 ovarian = tested on: SK-OV-3 ovarian
SN12C renal = tested on: SN12C renal
SNB-19 CNS = tested on: SNB-19 CNS
SNB-75 CNS = tested on: SNB-75 CNS
SR leukemia = tested on: SR leukemia
T-47D breast = tested on: T-47D breast
TK-10 renal = tested on: TK-10 renal
U251 glioblastoma = tested on: U251 glioblastoma
UACC-257 melanoma = tested on: UACC-257 melanoma
UACC-62 melanoma = tested on: UACC-62 melanoma
UO-31 renal = tested on: UO-31 renal

SMILES: Cn1cc(-c2ccc3c(c2)CCN3C(=O)Cc2cccc(C(F)(F)F)c2)c2c(N)ncnc21
- GI50 (786-0 renal): 3.99 µM
- TGI (786-0 renal): 16.2 µM
- GI50 (A498 renal): 0.967 µM
- TGI (A498 renal): 17.7 µM
- GI50 (A549 NSCLC): 6.71 µM
- TGI (A549 NSCLC): > 61.4 µM
- GI50 (BT-549 breast): 5 µM
- TGI (BT-549 breast): 17.6 µM
- GI50 (CAKI-1 renal): 2.14 µM
- TGI (CAKI-1 renal): 12.8 µM
- GI50 (CCRF-CEM leukemia): 2.75 µM
- TGI (CCRF-CEM leukemia): 7.98 µM
- GI50 (COLO 205 colon): 7.33 µM
- TGI (COLO 205 colon): 21 µM
- GI50 (DU-145 prostate): 4.16 µM
- TGI (DU-145 prostate): 22.3 µM
- GI50 (EKVX NSCLC): 3.03 µM
- TGI (EKVX NSCLC): 16.2 µM
- GI50 (HCC-2998 colon): 15.5 µM
- TGI (HCC-2998 colon): 29.6 µM
- GI50 (HCT-116 colon): 4.12 µM
- TGI (HCT-116 colon): 17.1 µM
- GI50 (HL-60(TB) leukemia): 2.21 µM
- TGI (HL-60(TB) leukemia): 6.42 µM
- GI50 (HOP-92 NSCLC): 3.52 µM
- TGI (HOP-92 NSCLC): 13.3 µM
- GI50 (HS 578T breast): 1.7 µM
- TGI (HS 578T breast): 7.47 µM
- GI50 (HT29 colon): 6.6 µM
- TGI (HT29 colon): 19.6 µM
- GI50 (IGROV1 ovarian): 5.29 µM
- TGI (IGROV1 ovarian): 49.9 µM
- GI50 (KM12 colon): 0.547 µM
- TGI (KM12 colon): 18.2 µM
- GI50 (M14 melanoma): 5.69 µM
- TGI (M14 melanoma): 21.5 µM
- GI50 (MALME-3M melanoma): 2.99 µM
- TGI (MALME-3M melanoma): 13.7 µM
- GI50 (MCF7 breast): 5.82 µM
- TGI (MCF7 breast): 20.3 µM
- GI50 (MDA-MB-435 melanoma): 8.32 µM
- TGI (MDA-MB-435 melanoma): 29.8 µM
- GI50 (MOLT-4 leukemia): 2.15 µM
- TGI (MOLT-4 leukemia): 5.04 µM
- GI50 (NCI-H226 lung): 3.82 µM
- TGI (NCI-H226 lung): 18.1 µM
- GI50 (NCI-H23 lung): 4.28 µM
- TGI (NCI-H23 lung): 15.9 µM
- GI50 (NCI-H460 NSCLC): 3.9 µM
- TGI (NCI-H460 NSCLC): 16.5 µM
- GI50 (NCI-H522 lung): 8.97 µM
- TGI (NCI-H522 lung): 21.5 µM
- GI50 (NCI/ADR-RES ovarian): 5.14 µM
- TGI (NCI/ADR-RES ovarian): 19.7 µM
- GI50 (OVCAR-3 ovarian): 8.44 µM
- TGI (OVCAR-3 ovarian): 21.6 µM
- GI50 (OVCAR-4 ovarian): 11.2 µM
- TGI (OVCAR-4 ovarian): 25.1 µM
- GI50 (OVCAR-5 ovarian): 15.4 µM
- TGI (OVCAR-5 ovarian): 29 µM
- GI50 (RPMI-8226 leukemia): 4.44 µM
- TGI (RPMI-8226 leukemia): 16 µM
- GI50 (SF-268 CNS): 9.26 µM
- TGI (SF-268 CNS): 23.8 µM
- GI50 (SF-295 CNS): 6.87 µM
- TGI (SF-295 CNS): 20.5 µM
- GI50 (SF-539 CNS): 6.09 µM
- TGI (SF-539 CNS): 19.2 µM
- GI50 (SK-MEL-2 melanoma): 2.71 µM
- TGI (SK-MEL-2 melanoma): 12.4 µM
- GI50 (SK-MEL-28 melanoma): 12.5 µM
- TGI (SK-MEL-28 melanoma): 37.3 µM
- GI50 (SK-OV-3 ovarian): 1.63 µM
- TGI (SK-OV-3 ovarian): 11.4 µM
- GI50 (SN12C renal): 1.36 µM
- TGI (SN12C renal): 8.59 µM
- GI50 (SNB-19 CNS): 15.3 µM
- TGI (SNB-19 CNS): 42.9 µM
- GI50 (SNB-75 CNS): 3.52 µM
- TGI (SNB-75 CNS): 14.2 µM
- GI50 (SR leukemia): 1.47 µM
- TGI (SR leukemia): 3.54 µM
- GI50 (T-47D breast): 2.91 µM
- TGI (T-47D breast): 9.03 µM
- GI50 (TK-10 renal): 7.63 µM
- TGI (TK-10 renal): 26.1 µM
- GI50 (U251 glioblastoma): 9.54 µM
- TGI (U251 glioblastoma): 39.4 µM
- GI50 (UACC-257 melanoma): 9.73 µM
- TGI (UACC-257 melanoma): 31 µM
- GI50 (UACC-62 melanoma): 5.44 µM
- TGI (UACC-62 melanoma): 17.9 µM
- GI50 (UO-31 renal): 6.72 µM
- TGI (UO-31 renal): 28.4 µM
